In patent US9949489B2, “Methods for control of hemipteran insect stylet sheath structure formation” (The United States of America, as Represented by the …, priority 2015, dated 2018):

Columns and labels:
[1] = tested on: D. citri; assay: Liquid ACP diet sandwich feeding assay (MFC): inhibition of de novo stylet sheath formation; format: in vivo, Diaphorina citri; conditions: for Effect (on ACP stylet sheath formation): D. citri, GRAS small molecule in 175 μL liquid ACP diet at the mM concentration of Table 8, about 24 h; for Effect on D. citri stylet sheath formation in liquid ACP diet: about 24 h, cellulase approx 1 unit/μl, BAPN 100 mM, EDTA approx 2 mM, proteases per Table 5
Protocol: (§1) The next step was to determine if addition of cellulase to the diet of D. citri would interfere with stylet sheath formation. A D. citri diet is prepared as described by Hall, David et al., “Research toward an artificial diet for adult Asian citrus psyllid,” Annals of the Entomological Society of America 103.4:611-617 (2010). Approximately 25 D. citri were collected into polystyrene Cellstar 35 mm×10 mm dishes (Griener Bio-One, Monroe, N.C.) that were then sealed using a single layer of Parafilm® M (Pechiney Plastic Packaging Company, Chicago, Ill.). Approximately 99 μl of liquid ACP diet (e.g., diet lacking the solidifying agar component, see Hall, et. al., 2010, supra) was mixed with approximately 1 μl of cellulase (Sigma Aldrich, St. Louis, Mo.) and mixed. […] layer Parafilm® M surface, which was then covered with another layer of Parafilm® M to form a sandwich (e.g., Parafilm® M—liquid ACP diet with cellulase—Parafilm® M) to allow ACP to feed into the liquid ACP diet containing cellulase. This MFC was then incubated at about 25° C., at about 75% relative humidity, with a light:dark cycle of approximately 14:10 hours for a period of about 24 hours. After about 24 hours, the stylet sheaths were observed using an inverted microscope. FIGS. 3G through 3I are images of three separate locations where D. citri made attempts to feed into the liquid ACP diet containing approximately 1 unit/μl cellulase.
(§2) Because many biomolecule polymerizing enzymes require divalent cations as cofactors, the effect of ethylenediaminetetraacetic acid (EDTA), a chelator of divalent cations, on ACP SS formation was tested by adding EDTA to the previously described liquid ACP diet (see Hall et al., 2010, supra). The EDTA was added to the liquid ACP diet at a concentration of approximately 2 mM EDTA in diH2O. Approximately 200 D. citri were placed in plastic Petri dishes. The dishes were covered with a single layer of Parafilm® M to form MFC. […] The MFC plates were incubated at a temperature of about 25° C., a relative humidity of about 75%, and a light/dark cycle of about 14:10 hours duration. Following the 24-hour incubation, the fluid (either liquid ACP diet containing EDTA or just the liquid ACP diet) between the two sheets of plastic was harvested by using a sterile 5 ml syringe and 20-gauge needle which was pushed into the center of the Parafilm® M-fluid-Parafilm® M sandwich, and the fluid was then removed by syringe plunger suction. The harvested fluids were put into sterile 50 ml conical vials, placed at about −80° C. until frozen. Each vial of harvested fluid was then lypholyzed overnight. The lyophilized product was then solubilized in […], placed at about −80° C. until frozen, then each new vial was lyopholyzed overnight. The lyophilized product was then solubilized in approximately 15 μL of approximately 1× Laemmili buffer (Bio-Rad, Hercules, Calif.) containing approximately 5% 2-mercaptoethanol. The sample was loaded onto a sodium dodecyl sulfate polyacrylamide gel (SDS-PAGE) and underwent electrophoresis. The SDS PAGE gel was then stained with coomassie. Uncommon bands between the liquid ACP diet containing EDTA and liquid ACP diet without EDTA (negative control) lanes were cut out and analyzed by Orbitrap (Thermo Scientific, Waltham, Mass.) protein analysis, according to manufacturer's protocol.
(§3) After about 24-hour incubation, D. citri feeding sites were observed. […] See also Table 2 and Table 3, infra.

[2] = tested on: D. citri; assay: as above; format: in vivo, Diaphorina citri; parameters: key: −: No effect apparent inhibition of stylet sheath; +/−: inconclusive inhibition; +: apparent slight inhibition effect; ++: increased apparent inhibition effect; +++: high inhibition effect; ++++: very high inhibition effect; +++++: complete inhibition of sheath synthesis; conditions: small molecule in liquid ACP diet, about 24 h, concentration, pH, 25° C. per Table 3
Protocol: as §1, §2, §3

[3] = tested on: Bemisia tabaci biotype B whitefly; assay: Liquid ACP diet sandwich feeding assay: stylet sheath formation by whitefly; format: in vivo; parameters: key to Inhibition of Sheath Formation: −: No effect apparent inhibition of stylet sheath; +/−: inconclusive inhibition; +: apparent slight inhibition effect; ++: increased apparent inhibition effect; +++: high inhibition effect; ++++: very high inhibition effect; +++++: complete inhibition of sheath synthesis
Protocol: The effects of a protease (bromelain and ficin) contained within the previously described artificial diet (liquid ACP diet) were tested on the Bemisia tabaci biotype B whitefly (a Aleyrodidae, an SSFHI) using approximately 100 live B. tabaci. Approximately 100 live B. tabaci were placed into polystyrene Cellstar 35 mm×10 mm dishes (Griener Bio-One, Monroe, N.C.) using the liquid ACP diet “sandwich” described in Example 2, using approximately 200 μL liquid ACP diet with or without a protease using the conditions described in Table 6 below. The MFCs were incubated at a temperature of about 25° C., a relative humidity of about 75%, and a light:dark cycle of approximately 14:10 hours. MFCs were maintained within clear Pyrex® baking dishes with the membrane (liquid ACP diet “sandwich”) side up, and the baking dish covered in a single layer of clear plastic wrap to prevent external contaminant interactions with the membrane surface during incubation. After about 24 hours incubation, the B. tabaci feeding sites were observed using an inverted microscope to see the effects of proteases in diet on the stylet sheaths for B. tabaci.
After performing the experiments using liquid ACP diet containing either bromelain or ficin experiment on B. tabaci, a similar experiment is performed substituting BAPN for the enzyme. […]

SMILES | Effect (on ACP stylet sheath formation) [1] | Inhibition of Sheath Formation [2] | further results
O=C1C[C@@H](c2ccc(O)cc2)Oc2cc(O)cc(O)c21 [Naringenin] | Malformed sheaths | – | –
O=c1ccc2ccc(O)cc2o1 [7-HO-Coumarin, 7-hydroxy-coumarin] | Malformed sheaths | – | –
O=C1C[C@@H](c2ccc(O)c(O)c2)Oc2cc(O)cc(O)c21 [Eriodictyol] | Malformed sheaths | – | –
OCc1ccc(O)cc1 [4-hydroxybenzyl alcohol] | – | ‘−’ (D. citri) | –
O=C(O)CN(CCN(CC(=O)O)CC(=O)O)CC(=O)O [Ethylenediaminetetraacetic acid (EDTA), Ethylenediaminetetraacetic acid] | – | ‘+++++’ (D. citri) | Effect on D. citri stylet sheath formation in liquid ACP diet [1]: can inhibit sheath formation
O=c1cc(CO)occ1O [Kojic Acid] | – | ‘++’ (D. citri) | –
[NH4+].[NH4+].[SH-].[SH-].[S]=[Mo]=[S] [Ammonium Tetrathiomolybdate] | – | ‘+++++’ (D. citri) | Effect on D. citri stylet sheath formation in liquid ACP diet [1]: potent inhibitor of D. citri sheath formation
N#CCCN.O=C(O)/C=C/C(=O)O [3-aminopropionitrile fumarate salt] | – | ‘+++++’ (D. citri) | Inhibition of Sheath Formation ([3]; WF (Bemisia tabaci, B biotype), BAPN 50 mM in diet): ‘+++++’ (WF); Effect on B. tabaci stylet sheath formation in liquid ACP diet ([3]; about 24 hours, bromelain or ficin 10 units in 250 μl of diet, BAPN 50 mM): prevents stylet sheath formation; Effect on D. citri stylet sheath formation in liquid ACP diet [1]: prohibited the solidification of the ACP SS
C[C@@H]1O[C@@H](O[C@H]2[C@H](Oc3cc(O)c4c(c3)O[C@H](c3ccc(O)cc3)CC4=O)O[C@H](CO)[C@@H](O)[C@@H]2O)[C@H](O)[C@H](O)[C@H]1O [Naringin] | Malformed sheaths | – | –
O[C@H](CS)[C@H](O)CS (racemic) [Dithiothreitol Solution (DTT), Dithiothreitol] | – | ‘+++++’ (D. citri) | –
CC1(C)O[C@H]2CC(=O)OC[C@]23[C@H]2CC[C@@](C)([C@@H](O[C@@H]4O[C@H](CO)[C@@H](O)[C@H](O)[C@H]4O)c4ccoc4)[C@@]4(O[C@@H]4C(=O)O)[C@]2(C)C(=O)C[C@@H]13 [Limonin glucoside] | Malformed sheaths | – | –
O=C([O-])CN(CC(=O)[O-])CC(=O)[O-].[Na+].[Na+].[Na+] [Nitrilotriacetic acid trisodium salt] | – | ‘+++++’ (D. citri) | –
COc1ccc([C@@H]2CC(=O)c3c(O)cc(O[C@@H]4O[C@H](CO[C@@H]5O[C@@H](C)[C@H](O)[C@@H](O)[C@H]5O)[C@@H](O)[C@H](O)[C@H]4O)cc3O2)cc1O [Hesperidin] | No Effect | – | –
CC1(C)O[C@H]2CC(=O)OC[C@]23[C@H]2CC[C@@]4(C)[C@H](c5ccoc5)OC(=O)[C@H]5O[C@]54[C@]2(C)C(=O)C[C@@H]13 [Limonin] | Malformed sheaths | – | –
C[C@@H]1O[C@@H](OC[C@H]2O[C@@H](Oc3cc(O)c4c(c3)O[C@H](c3ccc(O)c(O)c3)CC4=O)[C@H](O)[C@@H](O)[C@@H]2O)[C@H](O)[C@H](O)[C@H]1O [Eriocitrin] | Malformed sheaths | – | Effect (on ACP stylet sheath formation) ([1]; listed as eriocitrin): malformation of sheaths
CC(=O)O[C@H]1CC(=O)OC(C)(C)[C@@H]2CC(=O)[C@]3(C)[C@H](CC[C@@]4(C)[C@H](c5ccoc5)OC(=O)[C@H]5O[C@]543)[C@@]12C [Nomilin] | – | – | Effect (on ACP stylet sheath formation) ([1]; listed as nomilin): inhibition of flange solidification
COc1ccc([C@@H]2CC(=O)c3c(O)cc(O)cc3O2)cc1O [Hesperetin] | Malformed sheaths | – | –
COc1ccc([C@@H]2CC(=O)c3c(O)cc(O[C@@H]4O[C@H](CO[C@@H]5O[C@@H](C)[C@H](O)[C@@H](O)[C@H]5O)[C@@H](O)[C@H](O)[C@H]4O)cc3O2)cc1 [Didymin] | Malformed sheaths | – | –
